Laboratory results from US11884631B1 (priority 2023, dated 2024).

System: multidrug-resistant (MDR) strains of Mycobacterium tuberculosis
Test: microbe, parasite or virus in culture
Assay type: cell-based
Conditions: read-out: MIC (μg/mL) MDR Strain

Going from `Cc1ccc2c(ccc[n+]2CC(=O)c2cc(C(F)(F)F)cc(C(F)(F)F)c2)c1.[Br-]` [Compound 3c, 1-(2-(3,5-Bis(trifluoromethyl)phenyl)-2-oxoethyl)-6-methylquinolin-1-ium bromide] to `Cc1ccc2c(ccc[n+]2CC(=O)c2ccc(F)cc2)c1.[Br-]` [Compound 3b, 1-(2-(4-Fluorophenyl)-2-oxoethyl)-6-methylquinolin-1-ium bromide], the MIC falls from 32 µg/mL to 16 µg/mL (2-fold).

Work on `Cc1ccc2c(ccc[n+]2CC(=O)c2ccccc2[N+](=O)[O-])c1.[Br-]` [Compound 3a, 6-Methyl-1-(2-(2-nitrophenyl)-2-oxoethyl)quinolin-1-ium bromide] yielded an MIC of 64 µg/mL.
